This is an account of results in patent publication US6528538B1, “Cyclic compounds useful in the treatment of dyslipidaemia, atherosclerosis and diabetes, pharamaceutical compositions and preparation process” (Merck Patentgesellschaft, priority 1998, dated 2003).

Structures are written as SMILES.

In general, melting point refers to the temperature of the solid-liquid transition.

Consider `O=C(O)C1OCC2(CO1)c1ccccc1-c1ccccc12`, for which the melting point is 158 to 160 °C.

Take `CCOC(=O)C1(c2ccc(Cl)cc2)OCC2(CCC2)CO1`: the melting point was 117 °C.

Molecule `O=C(O)C1OCC2(CCC2c2ccc(Cl)cc2)CO1` (stereo not drawn) had a melting point of 171 °C.
